The values below come from US8211445B2, “PSM peptides as vaccine targets against methicillin-resistant Staphylococcus” (The United States of America, as represented by the …, priority 2007, dated 2012).

No end group written: not given here. *: point of attachment. For = O=C*

Test [1] has as its system human neutrophils. Put plainly: Lysis of human neutrophils (release of lactate dehydrogenase). As to conditions: for Neutrophil lysis: pro-inflammatory activity of PSMα3 mutants, relative to wild type PSMα3; for ability to promote neutrophil lysis: compared with wild type PSMα3. It counts as cell-based. Details: key to Neutrophil lysis: x: reduced activity; xx: strongly reduced activity. On the procedure:
(§1) Lysis of PMNs by synthetic PSMs or clarified S. aureus culture media was determined essentially as described (Voyich et al., J Infect Dis 194, 1761-70, 2006; Voyich et al., J Immunol 175, 3907-19, 2005). Synthetic PSMs (1 or 10 μg/ml) were added to wells of a 96-well tissue culture plate containing 10^6 PMNs and plates were incubated at 37° C. for up to 3 hours. At the desired times, PMN lysis was determined by release of lactate dehydrogenase (LDH; Cytotoxicity Detection Kit, Roche Applied Sciences). Alternatively, wild-type and isogenic mutant S. aureus strains were cultured for 18 hours at 37° C. in 50 ml TSB with shaking using a 100 ml flask. Bacteria were removed by centrifugation and culture media were sterilized by filtration and stored at −80° C. in aliquots until used. Culture medium was diluted 1:10 in RPMI/H, mixed with human PMNs (10^6) and tested for its ability to cause PMN lysis.
as §1, with “above in Example 2.” for “(Voyich et al., J Infect Dis 194, 1761-70, 2006; Voyich et al., J Immunol 175, 3907-19, 2005).”
(§2) Human neutrophil assays: Human neutrophil isolation, chemotaxis, calcium ion flux, priming, lysis assays, and measurement of IL-8 production were performed as described in Example 2.

The next test relates to human PMN. Briefly: Measurement of cytokine production by human PMN (ELISA). It counts as cell-based. More on the design: key to IL-8: x: reduced activity; xx: strongly reduced activity. As to conditions: for IL-8: secretion of IL-8 by human neutrophils, relative to wild type PSMα3; for IL-8 secretion: compared with wild type PSMα3. On the procedure: After isolation and washing, PMN or PBMC were resuspended in RPMI 1640 medium (Sigma) supplemented with 10% human serum, 2 mM L-glutamine, 100 U/ml penicillin, 100 μg/ml streptomycin, 2 mM sodium pyruvate, and 10 mM HEPES. Cells were distributed to a 96-well culture plate at 200 μl and 5×10^5 cells per well. Synthetic PSM peptides or filtered bacterial culture supernatants were diluted in fresh culture medium and added to the plate at 100 μl/well. Plates were incubated at 37° C. in a 5.5% CO2 incubator for 5 hours. Then, the plate was centrifuged at 1500 rpm for 10 minutes, and supernatant was harvested from each well. Mono Mac 6 cells were obtained from DSMZ (Germany), and were grown in RPMI 1640 plus 10% heat inactivated fetal bovine serum (HyClone), 2 mM L-glutamine, 10.0 units/ml penicillin, 10.0 μg/ml streptomycin, 0.2× non-essential amino acid solution, and OPI medium supplement (Sigma). Cells were grown in T75 culture flasks in a 37° C. CO2 incubator and harvested by centrifugation. After removal of supernatant, cells were resuspended in fresh culture medium, counted, and distributed into a 96-well cell culture plate at 100 μl and 2.5×10^5 cells per well. Phorbol 12-myristate 13-acetate (Sigma) was added to a final concentration of 2.5 ng/ml for cell pre-stimulation. The plate was incubated in a 37° C. CO2 incubator for 3 hours. At the end of the pre-stimulation period, synthetic PSM peptides were diluted in culture medium and added to the cells at 100 μl/well. Cells were incubated in a 37° C. CO2 incubator for 20-22 hours, and the plate was centrifuged at 1500 rpm for 10 minutes. Human TNF-α, IL-1β, IL-8, and mouse TNF-α were measured in the culture supernatants with commercial ELISA assay kits (R&D systems) according to the manufacturer's instructions.
as §2

Test [2] in a line: Immunization of mice with synthetic PSM peptides, PSM-specific antibodies by ELISA. It counts as in vivo, mice (BALB/c). As to conditions: 50 μg s.c. with CFA, booster with IFA. Here is the method:
In order to determine the immunogenicity of synthetic PSM peptides, mice (BALB/c, female, 6-8 weeks) were injected subcutaneously with 50 μg (100 μL) of each PSM peptide in sterile PBS emulsified with complete Freund's adjuvant (CFA) for primary immunization. A booster injection containing incomplete Freund's adjuvant (IFA) instead of CFA was given to the animals 14 days after the primary immunization. The control group of animals received injections of sterile PBS and adjuvants only. Three blood withdrawals were performed on each mouse. The first two blood samples were collected via retro-orbital route immediately before primary injection and before booster injection, respectively. All animals were sacrificed 21 days after booster injection for the terminal blood samples.
PSM-specific antibodies in mouse serum were determined by ELISA assays. Microtiter plates (Nunc 96-well flat-bottom MaxiSorp plates) were coated with 20 μg/ml of each synthetic PSM peptides in PBS plus 0.05% NaN3, and incubated overnight at 4° C. The plates were washed with PBS containing 0.05% Tween-20, and blocked for 1 hour at room temperature with 1% BSA (Sigma) and 0.05% NaN3 in PBS. Serum samples were diluted in assay diluent (Tris-buffered saline containing 0.1% BSA and 0.05% Tween-20, pH 7.2), and added to the washed wells at 100 μl/well for an incubation of 2 hours at room temperature. Plates were washed again and HRP-labeled goat anti-mouse IgG (R&D Systems) and goat anti-mouse IgM (Jackson ImmunoResearch Laboratory) were diluted in assay diluent and added to the plates at 100 μl/well for an incubation of 1 hour at room temperature in order to detect PSM specific mouse IgG and IgM, respectively. Plates were washed again and a substrate solution containing equal volume of Tetramethylbenzidine and H2O2 was added to the plates at 100 μl/well for color development. The reaction was terminated by adding 50 μl of 1 M H2SO4 to each well, and optical density (O.D.) was measured at 450 nm using an ELISA plate reader.

The test system of a further test is MRSA strains. Particulars: cited from earlier work.
Test [3] relates to human neutrophils. Put plainly: Priming of human neutrophils (surface expression of CD11b and gp91phox). It counts as cell-based. Details: key to CD11b: x: reduced activity; xx: strongly reduced activity. As to conditions: for CD11b: surface expression of CD11b on human neutrophils, relative to wild type PSMα3; for ability to increase CD11b expression: compared with wild type PSMα3. On the procedure: (§3) Priming of PMNs by synthetic PSMs was determined by increased surface expression of CD11b and gp91phox (granule exocytosis). PMNs were incubated with 10-10,000 ng/ml PSM, 10 μM fMLP, 10 ng/ml lipopolysaccharide, or 10 μg/ml lipoteichoic acid in 96-well tissue culture plates at 37° C. with rotation for 60 minutes. The assay was terminated by centrifuging cells at 4° C. for 8 minutes at 350×g. Cells were washed twice in cold Dulbecco's phosphate-buffered saline and stained with and isotype control antibody (BD Biosciences) or those specific for CD11b (mAb 44, BD Biosciences) or gp91phox (mAb 7D533). Propidium iodide (0.5 μg/ml) was used to identify dead cells. PMNs were analyzed on a FACSCalibur flow cytometer (Becton Dickinson) and dead cells were excluded with a single gate. Percent positive neutrophils were determined with a marker defined by the boundary of the isotype-matched control antibody.
as §3, with “10-10000” for “10-10,000”, “7D5).” for “7D533).”
as §2

[4] abbreviates: N-formylated synthetic PSM peptides, BALB/c mice (FIG. 11).
The mark [5] stands for this setting: non N-formylated synthetic PSM peptides, BALB/c mice (FIG. 12).

With “fMEFVAKAFKFFKDLLGKFLGNN (For-MEFVAKAFKFFKDLLGKFLGNN; listed as Staphylococcus aureus) [#5]”, the Neutrophil lysis result in the test with human neutrophils [1] is reported as “xx”.
Regarding fMEFVAKLFKFFKALLGKFLGNN [#11], in the test with human PMN, the IL-8 entry is listed as “xx”.
With MAIVGTIIKIIKAIIDIFAK [PSMα4], in test [2] (setting [4]), the “specific antibody production in vivo” value was “most robust antibody production”.
As to “MGIIAGIIKVIKSLIEQFTGK (S. aureus) [PSMα1]”, the “specific antibody production in vivo” value in test [2] (setting [4]) is recorded as “most robust antibody production”; in test [2] (setting [5]) it was “strongest response”.
With “fMEFAAKLFKFFKDLLGKFLGNN (For-MEFAAKLFKFFKDLLGKFLGNN; listed as Staphylococcus aureus) [#3]”, the IL-8 result in the test with human PMN is listed as “xx”.
For fMEFVAKLFAFFKDLLGKFLGNN [#7], in the test with human PMN, the IL-8 entry is reported as “xx”.
On to “MEGLFNAIKDTVTAAINNDGAKLGTSIVSIVENGVGLLGKLFGF (S. aureus) [PSMβ1]”, for which the “specific antibody production in vivo” value in test [2] (setting [5]) is given as “strongest response”.
In the case of `CN[C@H](CC(C)C)C(=O)N[C@H]1C(=O)N[C@@H](CC(N)=O)C(=O)N[C@H]2C(=O)N[C@H]3C(=O)N[C@H](C(=O)N[C@H](C(=O)O)c4cc(O)cc(O)c4-c4cc3ccc4O)[C@H](O)c3ccc(c(Cl)c3)Oc3cc2cc(c3O[C@@H]2O[C@H](CO)[C@@H](O)[C@H](O)[C@H]2O[C@H]2C[C@](C)(N)[C@H](O)[C@H](C)O2)Oc2ccc(cc2Cl)[C@H]1O` [vancomycin], the “minimum inhibitory concentration [MIC]” value with MRSA strains (MRSA strains with decreased susceptibility to vancomycin) is 8 to 16 µg/mL. The minimum inhibitory concentration (MIC) (in general, the lowest concentration found to suppress growth) in the test with MRSA strains (strains fully resistant to vancomycin) was at least 32 µg/mL.
With fMEFVAKLFKFFKDLLGKFLGNA [#20], the Neutrophil lysis result with human neutrophils [1] is given as “x”. Further, the CD11b entry in the test on human neutrophils [3] is reported as “x”. In the test with human PMN, the IL-8 entry is “xx”.
As to fMEFVAKLFKFFKDLLGKFLGAN [#19], in the test with human neutrophils [1], the “ability to promote neutrophil lysis” value is recorded as “greatest reduction” and the Neutrophil lysis result was “xx”. In addition, in the test with human neutrophils [3], the “ability to increase CD11b expression” value is on record as “greatest reduction” and the CD11b entry is recorded as “xx”. Further, in the test on human PMN, the IL-8 secretion entry is reported as “greatest reduction” and the IL-8 result is recorded as “xx”.
Turning to “fMEFVAALFKFFKDLLGKFLGNN (For-MEFVAALFKFFKDLLGKFLGNN; listed as Staphylococcus aureus) [#4]”, in the test on human neutrophils [1], the Neutrophil lysis entry is “xx”. Moreover, in the test with human PMN, the IL-8 result is “xx”.
In the case of fMEFVAKLFKFFKDLLGAFLGNN [#15], the Neutrophil lysis entry in the test on human neutrophils [1] is “xx”. Also, in the test with human PMN, the IL-8 result is “xx”.
In the case of fMAFVAKLFKFFKDLLGKFLGNN [#1], the Neutrophil lysis result in the test on human neutrophils [1] is on record as “xx”. For the same compound, in the test on human neutrophils [3], the CD11b result is listed as “x”.
For “MEFVAKLFKFFKDLLGKFLGNN [PSMα3, no formyl]”, in the test with human neutrophils [1], the “ability to promote neutrophil lysis” value is reported as “reduced ability” and the Neutrophil lysis entry is listed as “x”. Further, in the test with human neutrophils [3], the “ability to increase CD11b expression” value is “strongly reduced ability” and the CD11b entry is listed as “xx”. In the test on human PMN, the IL-8 secretion entry is “strongly reduced ability” and the IL-8 entry is “xx”.
Regarding fMEFVAKLFKFFKDLLAKFLGNN [#14], the IL-8 result in the test on human PMN was “xx”.
Turning to “fMEFVAKLFKFFADLLGKFLGNN (For-MEFVAKLFKFFADLLGKFLGNN; listed as Staphylococcus aureus) [#10]”, in the test on human neutrophils [1], the Neutrophil lysis entry is reported as “x”. Also, in the test with human neutrophils [3], the CD11b entry is “xx”. Also, the IL-8 result with human PMN was “xx”.
